Like-named read-outs stand apart in the source and are kept apart here.
Columns and labels:
[1] = test system: IDMS cells (HMLE_shEcad, HMLE_Twist) versus control HMLE_shGFP cells; assay: Dose-response cell survival, ATP-based luminescence assay, HMLE cells; design: species or system human; conditions: for killing of IDMS cells relative to control HMLE cells: 3 days, FIG. 3B, 3C
Experimental: (B) Dose response curves of HMLE_shGFP, HMLE_shEcad and HMLE_Twist cells treated with various concentrations of Cmp302, Cmp308 and Dev4, respectively for 3 days. Cell survival was determined using an ATP-based luminescence assay.
(B) Dose-response curves of HMLE_shGFP, HMLE_shEcad and HMLE_Twist cells treated with various concentrations of Thapsigargin, DTT and A23187 for 3 days. Cell survival was determined using an ATP-based luminescence assay.
(B) Dose-response curves indicating viability of Dev2-treated cell lines
(§1) Cells (3000/well) were plated in 100 μl per well in 96-well plates. One day (24 hr) after seeding, compounds were added in 8 different doses at three replicates per dose for each cell line. Cell viability was measured after 72 hr with the CellTiter-Glo […] Assay (Promega). Paclitaxel, Doxorubicin, Tunicamycin, Thapsigargin, A23187 and DTT were purchased from Sigma Aldrich. Cmp302 and Cmp308 were purchased from Biointerscreen.

[2] = test system: UPR signaling in HMLER_shGFP and HMLER_Twist cells; assay: UPR signaling (Western blot, XBP1 RT-PCR, ATF6 reporter, qPCR); assay type: cell-based, human
Experimental: (A) Expression of UPR pathway components in HMLER_shGFP and HMLER_Twist cells that were treated with Dev2, Cmp302, Dev4 or DMSO solvent for 6 h. Western blot analysis for phospho-eIF2α, total eIF2α, CHOP and β-Tubulin. RT-PCR analysis of XBP1 and XBP1 splice variant and GAPDH transcripts.
(D) Western blot analysis of HMLER_shGFP and HMLER_Twist cells treated with vehicle (DMSO), DTT or A23187 for 4 h and probed for p-eIF2α, total eIF2α, CHOP and β-Tubulin (loading control). RT-PCR analysis of XBP1 and XBP1 splice variant and GAPDH transcripts.
(E) Western blot analysis of HMLER_shGFP and HMLER_Twist cells treated with vehicle (DMSO), Tunicamycin or Thapsigargin for 4 h and probed for p-eIF2α, total eIF2α, CHOP and β-Tubulin (loading control). RT-PCR analysis of XBP1 and XBP1 splice variant and GAPDH transcripts.
Reporter activity for each cell line was normalized relative to DMSO treatment.
BIP expression was normalized relative to GAPDH for each sample.
(C) ATF6 activation of HMLER_shGFP and HMLER_Twist cells in response to Tunicamycin, Thapsigargin, DTT and A23187 were measured by ATF6 reporter assay. Reporter activity for each cell line was normalized relative to DMSO treatment.
(D) qPCR analysis for BIP expression in HMLER_shGFP and HMLER_Twist cells treated with Thapsigargin and DTT. BIP expression was normalized relative to GAPDH for each sample.
(E) qPCR analysis for expression of GADD34 in HMLER_shGFP and HMLER_Twist cells treated with Thapsigargin and DTT. GADD34 expression was normalized relative to GAPDH for each sample.
Western blotting was performed as previously described (Gupta et al., 2009). Antibodies used for immunoblotting were as follows: E-cadherin (BD Transduction), Fibronectin (Abcam), Actin, Cytokeratin 8/18, PERK, eIF2α, peIF2α, CHOP, Caspase-3 and Bip (Cell Signal Technology).
p5xATF6-GL3 and hRluc constructs were obtained from Addgene (plasmids 11976 and 24348, provided by Drs. Ron Prywes and Liqun Luo, resp.). 24 hours after co-transfection of 0.3 μg p5xATF6-GL3 and 0.05 μg hRluc plasmids, cells were treated with indicated compounds for another 6 hours, and ATF6 activity was measured by a dual luciferase assay (Promega).

[3] = test system: protein secretion of HMLE cells; assay: 35S-methionine/cysteine labeling of secreted proteins, HMLE cells; assay type: cell-based, human; conditions: control experiment; data not shown
Experimental: (F) Autoradiograph showing ^35S-methionine/cysteine-labeled secreted proteins in IDMS (HMLE_shEcad, HMLE_Twist) and control (HMLE_shGFP) cells. Secreted proteins were harvested at the indicated time points. Quantification of signal in each lane is provided in arbitrary units. The indicated proteins were identified by mass-spectrometry.
(§2) Equal numbers of cells were cultured in the presence of ^35S-methionine/cysteine in medium with reduced methionine/cysteine content and minimal serum. At the indicated timepoints, aliquots of medium were extracted for analysis. Medium was centrifuged at 800×g for 2 min to pellet any whole cell contaminants. Equal volume of medium was reduced in loading buffer, separated by SDS-PAGE and analyzed by autoradiography.
To determine whether overall protein secretion was elevated in IDMS cells, total protein synthesis and secretion was measured using ^35S-methionine/cysteine. Labeled proteins secreted by cells into the culture medium (“secretome”) were visualized by gel electrophoresis and autoradiography. After three hours of ^35S-methionine/cysteine labeling, we observed a 9.6-fold and 13.7-fold increase in the secretome of IDMS cells (HMLE_shEcad and HMLE_Twist, resp.) relative to the control epithelial cells (FIG. 4F).

[4] = test system: HMLER_shGFP and HMLER_Twist cells; assay: Viability with thapsigargin in presence or absence of salubrinal; assay type: cell-based, human; conditions: 10 μM salubrinal, 3 days; FIG. 6F
Experimental: (F) Relative viability of HMLER_shGFP and HMLER_Twist cells treated with increasing doses of thapsigargin in the presence or absence of 10 μM salubrinal for 3 days. Cell viability was assayed with an ATP-based luminescence assay.
as §1

[5] = test system: HMLE_Twist_GFP / HMLE_shEcad_GFP cells mixed 1:1 with HMLE_shGFP_dsRed cells; assay: Co-culture of GFP-labeled IDMS cells with dsRed-labeled control epithelial cells; assay type: cell-based, human; conditions: 1:1 co-culture, 5 days treatment; FIGS. 1D and E
Experimental: (D) Representative fluorescence images of HMLE_shGFP_dsRed and HMLE_Twist_GFP cells were mixed in a 1:1 ratio and treated with 5 nM Paclitaxel, 2 μM Cmp302, 2 μM Cmp308 or DMSO control. Images after 5 days of treatment are shown. Scale bar: 50 μm
(E) Quantification of HMLE_shGFP_dsRed and HMLE_shEcad_GFP cells that were mixed in a 1:1 ratio and treated with Doxorubicin or Dev4. Following a 5 day treatment, the percentages of dsRed-positive and GFP-positive cells were quantified by FACS.
Even though Cmp302 and Cmp308 were selective for IDMS cells when cultured alone, tumors are comprised of heterogeneous populations of cells that could affect the sensitivity or selectivity of the applied chemicals. Therefore GFP-labeled IDMS cells were co-cultured with dsRed-labeled control epithelial cells and then applied Cmp302 and Cmp308.

MDA-MB-157 cells = assay: Dose-response cell survival of MDA-MB-157 cells in suspension versus adherent culture; assay type: cell-based, human; conditions: 3 days; FIG. 1I
Experimental: (I) Dose-response curves of MDA-MB-157 cells cultured in adherent or suspension conditions and treated with 8 doses of paclitaxel, Cmp302 or Cmp308 for 3 days. Cell survival was determined using an ATP-based luminescence assay.
as §1
Next, it was determined whether the preferential toxicity of these compounds was unique to the oncogenic modifications of the HMLE breast epithelial cell system. Accordingly, a model was developed in which human breast carcinoma cells progressed towards the IDMS state in the absence of genetic modifications by altering their extracellular contextual signals. […] However, this line adopts an IDMS state when detached from its substratum and cultured in suspension (FIG. 1F). […] This morphologic alteration was accompanied by upregulation of mesenchymal markers (fibronectin) and downregulation of epithelial proteins (cytokeratin 8/18 and E-cadherin) (FIG. 1G). […]

[6] = test system: MDA-MB-157 cells (CD44hiCD24lo and CD44loCD24hi fractions); assay: Flow cytometry of CD44/CD24 fractions of treated MDA-MB-157 cells; assay type: cell-based, human; conditions: suspension, 36 h; FIG. 1J
Experimental: (J) MDA-MB-157 cells were treated with Cmp308, paclitaxel or DMSO solvent in suspension for 36 h and analyzed by flow cytometry for CD44 and CD24 expression. The percentage of CD44^hiCD24^lo and CD44^loCD24^hi cells in were quantified and normalized relative to DMSO controls.
FACS analysis was performed according to the manufacturer's protocol (BD Biosciences). Reagents used in FACS were as follows: APC-conjugated anti-CD44 antibody (clone G44-26), PE-conjugated anti-CD24 antibody (clone ML5), and propidium iodide (5 μg/ml) (BD Bioscience).

SUM159 cancer cells [7] = assay: Tumorsphere formation of pretreated SUM159 cells; assay type: cell-based, human; conditions: pretreatment 3 days (1 μg/ml Tunicamycin, 10 nM Thapsigargin), 3 days recovery
Experimental: (A) Representative brightfield images and quantification of tumorsphere formation of SUM159 cancer cells treated with 5 nM Paclitaxel, 1 μg/ml Tunicamycin, 10 nM Thapsigargin, or DMSO vehicle for 3 days followed by another 3 days of recovery in regular medium. Scale bar: 50 μm
Mammosphere formation assays were performed as described (Dontu et al., 2003), but with 0.6% methylcellulose (Stem Cell Technologies). Five thousand cells were plated per well in low-adherence 24-well plates and cultured for 5-8 days prior to being counted and photographed.
(§3) To determine whether chemical ER perturbants could abrogate the malignancy of IDMS cells, SUM159 cancer cells (derived from a primary anaplastic Basal-B breast carcinoma) were treated with tunicamycin, thapsigargin or paclitaxel at their respective IC75 doses. Cells were then allowed to recover in the absence of treatment prior to subjecting them to functional assays for IDMS-related phenotypes.

SUM159 cancer cells [8] = assay: Transwell migration of pretreated SUM159 cells; assay type: cell-based, human; conditions: 5 h migration
Experimental: (B) Representative images of crystal violet staining of SUM159 cells following transwell migration assay. Transwell migration assay was performed on SUM159 cancer cells treated as in (A). Cells that have migrated for 5 h following seeding into 8 μm pore inserts were visualize and quantified. Scale bar: 50 μm
as §3

[9] = test system: protein secretion of SUM159 cells; assay: 35S-methionine/cysteine labeling of secreted proteins, pretreated SUM159 cells; assay type: cell-based, human; conditions: pretreatment 3 days, recovery 3 days
Experimental: (B) Autoradiograph showing ^35S-methionine/cysteine-labeled secreted proteins in SUM159 cells that were pretreated with 1 μg/ml Tunicamycin, 10 nM Thapsigargin, 0.1 μM A23187 or DMSO vehicle for 3 days and allowed to recover in the absence of chemical for 3 days prior to the ^35S-methionine/cysteine labeling.
as §2

SUM159 cells = assay: Dose-response of pretreated SUM159 cells to paclitaxel or doxorubicin; assay type: cell-based, human; conditions: pretreated SUM159, then paclitaxel or doxorubicin 3 days; FIG. 7D
Experimental: (D) Dose-response curves of SUM159 cells pre-treated as in (C) and then treated with 8 doses of paclitaxel or doxorubicin for 3 days. Cell survival was determined using an ATP-based luminescence assay.
as §1

[10] = 6 h treatment (Cmp302, Dev4, Dev2) or 4 h (DTT, A23187, tunicamycin, thapsigargin), IDMS versus non-IDMS cells

O[C@H](CS)[C@H](O)CS (racemic) [DTT, dithiothreitol]
killing of IDMS cells relative to control HMLE cells [1]: selective lethality | UPR signaling (XBP1 splicing, eIF2α phosphorylation, ATF6 activation) [2, 10]: selectively induced

CNc1ccc2oc(C[C@H]3O[C@@]4(CC[C@H]3C)O[C@H]([C@H](C)C(=O)c3ccc[nH]3)[C@H](C)C[C@H]4C)nc2c1C(=O)O [A23187]
killing of IDMS cells relative to control HMLE cells [1]: selective lethality | UPR signaling (XBP1 splicing, eIF2α phosphorylation, ATF6 activation) [2]: selectively induced

C[C@H]1CCC/C=C/[C@@H]2C[C@H](O)C[C@H]2[C@H](O)/C=C/C(=O)O1 [Brefeldin-A, Brefeldin A]
protein secretion [3]: completely abolished protein secretion

O=C(/C=C/c1ccccc1)NC(NC(=S)Nc1cccc2cccnc12)C(Cl)(Cl)Cl (centres unmarked) [Salubrinal, salubrinal]
sensitization to thapsigargin treatment [4]: further sensitized HMLER-Twist IDMS, but not control cells

COc1cccc2c1C(=O)c1c(O)c3c(c(O)c1C2=O)C[C@@](O)(C(=O)CO)C[C@@H]3O[C@H]1C[C@H](N)[C@H](O)[C@H](C)O1 [doxorubicin]
effect on IDMS cells in mixed populations [5]: selective expansion of IDMS cells

CC(=O)O[C@H]1C(=O)[C@@]2(C)[C@H]([C@H](OC(=O)c3ccccc3)[C@]3(O)C[C@H](OC(=O)[C@H](O)[C@@H](NC(=O)c4ccccc4)c4ccccc4)C(C)=C1C3(C)C)[C@]1(OC(C)=O)CO[C@@H]1C[C@@H]2O [paclitaxel]
effect on IDMS cells in mixed populations [5]: selective expansion of IDMS cells | toxicity towards IDMS MDA-MB-157 cells in suspension relative to non-IDMS cells in adherent conditions (MDA-MB-157 cells): decreased toxicity | preferential toxicity towards CD44hiCD24lo versus CD44loCD24hi fraction [6]: did not exhibit this preferential toxicity

C/C=C(/C)C(=O)O[C@H]1C(C)=C2[C@H]([C@@H]1OC(=O)CCCCCCC)[C@@](C)(OC(C)=O)C[C@H](OC(=O)CCC)[C@@]1(O)[C@H]2OC(=O)[C@@]1(C)O [thapsigargin]
killing of IDMS cells relative to control HMLE cells [1]: selective lethality | UPR signaling (XBP1 splicing, eIF2α phosphorylation, ATF6 activation) [2, 10]: selectively induced | tumorsphere-forming ability relative to paclitaxel- or DMSO-treated cells (SUM159 cancer cells [7]): significantly reduced | migratory ability relative to paclitaxel-pretreated cells (SUM159 cancer cells [8]): strongly impaired | protein secretion relative to paclitaxel- and DMSO-treated cells [9]: strongly inhibited | sensitization of pretreated cells to chemotherapy (SUM159 cells): sensitized SUM159 cells to paclitaxel and doxorubicin

tunicamycin
IC50 (toxicity) ([1]; both IDMS and control HMLE cells, data not shown): < 10^−10 g/ml | UPR signaling (XBP1 splicing, eIF2α phosphorylation, ATF6 activation) [2, 10]: more readily induced in IDMS cells | dose required for UPR induction relative to toxic dose ([2]; IDMS cells, FIG. 3E): 100 fold | tumorsphere-forming ability relative to paclitaxel- or DMSO-treated cells (SUM159 cancer cells [7]): significantly reduced | migratory ability relative to paclitaxel-pretreated cells (SUM159 cancer cells [8]): strongly impaired | protein secretion relative to paclitaxel- and DMSO-treated cells [9]: strongly inhibited | sensitization of pretreated cells to chemotherapy (SUM159 cells): sensitized SUM159 cells to paclitaxel and doxorubicin

Reference: patent US9316631B1, “ER-stress inducing compounds and methods of use thereof” (Whitehead Institute for Biomedical Research, priority 2012, dated 2016)
